Where a name gives a salt, the structure may show the parent alone. Read-outs that look alike come from different tables or passages of the source.
Columns and labels:
[1] = system: NCI-H292 lung cancer cells; experiment: FDA drug screening, complete media vs cholesterol-free media with simvastatin (TABLE 2); type: cell-based, human
[2] = system: NCI-H292 lung cancer cells; experiment: FDA drug screening, complete media vs cholesterol-free media without statin (TABLE 1); type: cell-based, human
[3] = NCI-H292 cells, cholesterol-free media with simvastatin 0.04 μM, FDA drug library screen (TABLE 2)
[4] = NCI-H292 cells, complete media, FDA drug library screen (TABLE 2)
[5] = complete media minus cholesterol-free media + simvastatin (0.04 μM), >0 enhanced anti-cancer activity, about 0 neutral, <0 antagonist
[6] = Complete minus Cholesterol-free, >0 enhanced anti-cancer activity, about 0 neutral, <0 antagonist
[7] = NCI-H292 cells, cholesterol-free media without statin, FDA drug library screen
[8] = NCI-H292 cells, complete media, FDA drug library screen
[9] = complete vs cholesterol-free media, >0 enhanced anti-cancer activity, about 0 neutral, <0 antagonist
[10] = NCI-H292 cells, FDA drug library screen, cholesterol-free media with simvastatin 0.04 μM
[11] = NCI-H292 cells, FDA drug library screen, complete media
[12] = complete media vs cholesterol-free media + simvastatin (0.04 μM), >0 enhanced anti-cancer activity, about 0 neutral, <0 antagonist
[13] = Complete minus Cholesterol-free, greater than 0 enhanced anti-cancer activity, about 0 neutral, below 0 antagonists
[14] = NCI-H292 cells in cholesterol-free media without statin
[15] = NCI-H292 cells in complete media
[16] = NCI-H292 cells, cholesterol-free media with simvastatin 0.04 μM, cell growth value in FDA drug screen
[17] = NCI-H292 cells, complete media, cell growth value in FDA drug screen
[18] = complete media minus cholesterol-free media + simvastatin, >0 enhanced anti-cancer activity, about 0 neutral, <0 antagonist
[19] = NCI-H292 cells, FDA library drug in cholesterol-free media with simvastatin 0.04 μM
[20] = NCI-H292 cells, FDA library drug in complete media
[21] = Complete minus Cholesterol-free, greater than 0 enhanced anti-cancer activity, about 0 neutral, below 0 antagonist
[22] = NCI-H292 cells, FDA drug library screen, cholesterol-free media without statin
[23] = NCI-H292 cells, drug in cholesterol-free media with simvastatin 0.04 μM
[24] = NCI-H292 cells, drug in complete media
[25] = NCI-H292 cells, cholesterol-free media without statin
[26] = complete vs cholesterol-free media, greater than 0 enhanced anti-cancer activity, about 0 neutral, below 0 antagonists
[27] = complete media vs cholesterol-free media + simvastatin (0.04 μM), […]
[28] = complete vs cholesterol-free media, […]

N#C[C@@H]1C[C@@H]2C[C@@H]2N1C(=O)[C@@H](N)C12CC3CC(CC(O)(C3)C1)C2 [Saxagliptin]
Cholesterol-free media + simvastatin (0.04 μM) [1, 3]: 0.8307 | Complete Media [1, 4]: 0.816 | Difference [1, 5]: −0.01 | Difference [2, 6]: −0.04 | Cholesterol-free [2, 7]: 0.9657 | Complete [2, 8]: 0.9238

Cc1ncc([N+](=O)[O-])n1CC(C)O (centres unmarked) [Secnidazole]
Cholesterol-free media + simvastatin (0.04 μM) [1, 3]: 1.474 | Complete Media [1, 4]: 1.409 | Difference [1, 5]: −0.07 | Cholesterol-free [2, 7]: 1.105 | Complete [2, 8]: 1.528 | Difference [2, 9]: 0.42

CO[C@H]1C[C@H](O[C@@H]2/C(C)=C/C[C@@H]3C[C@@H](C[C@]4(CC[C@H](C)[C@@H](C5CCCCC5)O4)O3)OC(=O)[C@@H]3C=C(C)/C(=N/O)[C@H]4OC/C(=C\C=C\[C@@H]2C)[C@]43O)O[C@@H](C)[C@@H]1O [Selamectin]
Cholesterol-free media + simvastatin (0.04 μM) [1]: 0.0107 | Complete Media [1]: 0.03346 | Difference [1]: 0.02 | Cholesterol-free [2]: −0.000828 | Complete [2]: −0.0121 | Difference [2]: −0.01

C[Se]CC[C@H](N)C(=O)O [Selenomethionine]
Cholesterol-free media + simvastatin (0.04 μM) [1, 10]: 1.83 | Complete Media [1, 11]: 1.71 | Difference [1, 12]: −0.12 | Difference [2, 13]: −0.63 | Cholesterol-free [2, 14]: 1.898 | Complete [2, 15]: 1.265

CC(C)N(CCCCOCC(=O)NS(C)(=O)=O)c1cnc(-c2ccccc2)c(-c2ccccc2)n1 [Selexipag]
Cholesterol-free media + simvastatin (0.04 μM) [1, 16]: 0.9295 | Complete Media [1, 17]: 1.013 | Difference [1, 18]: 0.08 | Cholesterol-free [2, 7]: 0.7206 | Complete [2, 8]: 1.028 | Difference [2, 9]: 0.31

COc1ccc(CN2C3CC2CN(c2ccc(-c4cc(OCC(C)(C)O)cn5ncc(C#N)c45)cn2)C3)cn1 [Selpercatinib]
Cholesterol-free media + simvastatin (0.04 μM) [1, 10]: 1.485 | Complete Media [1, 11]: 1.627 | Difference [1, 18]: 0.14 | Difference [2, 6]: −0.01 | Cholesterol-free [2, 7]: 0.9224 | Complete [2, 8]: 0.9158

Cn1cnc2c(F)c(Nc3ccc(Br)cc3Cl)c(C(=O)NOCCO)cc21 [Selumetinib]
Cholesterol-free media + simvastatin (0.04 μM) [1, 19]: 0.7343 | Complete Media [1, 20]: 0.4618 | Difference [1, 12]: −0.27 | Difference [2, 21]: −0.18 | Cholesterol-free [2, 22]: 0.4744 | Complete [2, 11]: 0.2899

CC1=C(C)C(=O)C(C(CCCCCC(=O)O)c2ccccc2)=C(C)C1=O (centres unmarked) [Seratrodast]
Cholesterol-free media + simvastatin (0.04 μM) [1, 10]: 0.9305 | Complete Media [1, 11]: 1.335 | Difference [1, 18]: 0.40 | Difference [2, 6]: 0.00 | Cholesterol-free [2, 7]: 0.9876 | Complete [2, 8]: 0.9904

NCCc1c[nH]c2ccc(O)cc12 [Serotonin hydrochloride]
Cholesterol-free media + simvastatin (0.04 μM) [1, 23]: 1.379 | Complete Media [1, 24]: 1.18 | Difference [1, 12]: −0.20 | Difference [2, 13]: −0.64 | Cholesterol-free [2, 14]: 1.639 | Complete [2, 15]: 1.003

O=C1NCCN1CCN1CCC(c2cn(-c3ccc(F)cc3)c3ccc(Cl)cc23)CC1 [Sertindole]
Cholesterol-free media + simvastatin (0.04 μM) [1, 10]: 0.7983 | Complete Media [1, 11]: 1.128 | Difference [1, 18]: 0.33 | Difference [2, 6]: −0.04 | Cholesterol-free [2, 7]: 0.5468 | Complete [2, 8]: 0.5035

CN[C@H]1CC[C@@H](c2ccc(Cl)c(Cl)c2)c2ccccc21 [Sertraline (hydrochloride)]
Cholesterol-free media + simvastatin (0.04 μM) [1, 10]: 0.9083 | Complete Media [1, 11]: 1.2 | Difference [1, 18]: 0.29 | Difference [2, 21]: −0.11 | Complete [2, 11]: 0.9984

CN1CCC2=C(C1)c1ccccc1Cc1ccccc12 [Setiptiline]
Cholesterol-free media + simvastatin (0.04 μM) [1, 23]: 1.048 | Complete Media [1, 24]: 0.8546 | Difference [1, 12]: −0.19 | Difference [2, 21]: −0.08 | Cholesterol-free [2, 22]: 1.103 | Complete [2, 11]: 1.024

CCCc1nn(C)c2c(=O)[nH]c(-c3cc(S(=O)(=O)N4CCN(C)CC4)ccc3OCC)nc12 [Sildenafil]
Cholesterol-free media + simvastatin (0.04 μM) [1, 10]: 1.23 | Complete Media [1, 11]: 1.131 | Difference [1, 12]: −0.10 | Difference [2, 13]: −0.63 | Cholesterol-free [2, 14]: 1.66 | Complete [2, 15]: 1.034

COc1cc(C2Oc3cc([C@H]4Oc5cc(O)cc(O)c5C(=O)[C@@H]4O)ccc3OC2CO)ccc1O (some centres unmarked) [Silibinin]
Cholesterol-free media + simvastatin (0.04 μM) [1, 19]: 2.112 | Complete Media [1, 20]: 1.696 | Difference [1, 12]: −0.42 | Cholesterol-free [2, 7]: 0.9386 | Complete [2, 8]: 1.219 | Difference [2, 9]: 0.28

C[C@H](Cc1cc2c(c(C(N)=O)c1)N(CCCO)CC2)NCCOc1ccccc1OCC(F)(F)F [Silodosin]
Cholesterol-free media + simvastatin (0.04 μM) [1, 10]: 1.21 | Complete Media [1, 11]: 1.074 | Difference [1, 12]: −0.14 | Cholesterol-free [2, 25]: 1.295 | Complete ([2]; NCI-H292 cells, complete media): 0.8816 | Difference [2, 26]: −0.41

COc1ccc2c(O[C@@H]3C[C@H]4C(=O)N[C@]5(C(=O)NS(=O)(=O)C6CC6)C[C@H]5/C=C\CCCCN(C)C(=O)[C@@H]4C3)cc(-c3nc(C(C)C)cs3)nc2c1C [Simeprevir]
Cholesterol-free media + simvastatin (0.04 μM) [1, 10]: 0.845 | Complete Media [1, 11]: 0.7552 | Difference [1, 12]: −0.09 | Cholesterol-free [2, 7]: 0.5666 | Complete [2, 8]: 0.795 | Difference [2, 9]: 0.23

COC1=C[C@@H]2[C@@H]3Cc4ccc(OC)c(O)c4[C@]2(CCN3C)CC1=O [Sinomenine hydrochloride]
Cholesterol-free media + simvastatin (0.04 μM) [1, 23]: 1.006 | Complete Media [1, 24]: 0.7844 | Difference [1, 27]: −0.22 | Cholesterol-free [2, 7]: 1.217 | Complete [2, 8]: 1.524 | Difference [2, 28]: 0.31

CCc1cc(/C(C)=N/OCc2ccc(C3CCCCC3)c(C(F)(F)F)c2)ccc1CN1CC(C(=O)O)C1 [Siponimod]
Cholesterol-free media + simvastatin (0.04 μM) [1, 19]: 1.121 | Complete Media [1, 20]: 0.7701 | Difference [1, 12]: −0.35 | Difference [2, 6]: −0.01 | Cholesterol-free [2, 7]: 0.9324 | Complete [2, 8]: 0.9251

N[C@@H]1CN(c2c(F)cc3c(=O)c(C(=O)O)cn([C@@H]4C[C@@H]4F)c3c2Cl)CC12CC2.O [Sitafloxacin (hydrate)]
Cholesterol-free media + simvastatin (0.04 μM) [1, 19]: 1.043 | Complete Media [1, 20]: 0.7235 | Difference [1, 27]: −0.32 | Cholesterol-free [2, 25]: 1.147 | Complete ([2]; NCI-H292 cells, complete media): 0.7079 | Difference [2, 28]: −0.44

N[C@@H](CC(=O)N1CCn2c(nnc2C(F)(F)F)C1)Cc1cc(F)c(F)cc1F [Sitagliptin]
Cholesterol-free media + simvastatin (0.04 μM) [1, 10]: 1.605 | Complete Media [1, 11]: 1.493 | Difference [1, 12]: −0.11 | Difference [2, 21]: −0.08 | Cholesterol-free [2, 22]: 0.9944 | Complete [2, 11]: 0.9145

CC(C)(C)C(=O)Oc1ccc(S(=O)(=O)Nc2ccccc2C(=O)NCC(=O)O)cc1 [Sivelestat (sodium tetrahydrate)]
Cholesterol-free media + simvastatin (0.04 μM) [1, 3]: 1.071 | Complete Media [1, 4]: 1.039 | Difference [1, 5]: −0.03 | Difference [2, 6]: −0.30 | Cholesterol-free [2, 25]: 1.29 | Complete ([2]; NCI-H292 cells, complete media): 0.9928

CC(C)(C)C(=O)Oc1ccc(S(=O)(=O)Nc2ccccc2C(=O)NCC(=O)O)cc1 [Sivelestat]
Cholesterol-free media + simvastatin (0.04 μM) [1, 16]: 0.7952 | Complete Media [1, 17]: 0.866 | Difference [1, 18]: 0.07 | Difference [2, 21]: −0.16 | Cholesterol-free [2, 22]: 1.175 | Complete [2, 11]: 1.017

Nc1ccc(C(=O)[O-])c(O)c1.O.O.[Na+] [Sodium 4-aminosalicylate (dihydrate)]
Cholesterol-free media + simvastatin (0.04 μM) [1, 19]: 1.473 | Complete Media [1, 20]: 1.188 | Difference [1, 27]: −0.29 | Difference ([2]; Complete minus Cholesterol-free, […]): −0.15 | Cholesterol-free [2, 22]: 1.093 | Complete [2, 11]: 0.9477

O=C([O-])CCCc1ccccc1.[Na+] [Sodium 4-phenylbutyrate]
Cholesterol-free media + simvastatin (0.04 μM) [1, 23]: 1.094 | Complete Media [1, 24]: 0.9051 | Difference [1, 12]: −0.19 | Cholesterol-free [2, 7]: 0.7629 | Complete [2, 8]: 1.099 | Difference [2, 9]: 0.34

O=S(=O)(O)Oc1ccc(C(c2ccc(OS(=O)(=O)O)cc2)c2ccccn2)cc1 [Sodium Picosulfate]
Cholesterol-free media + simvastatin (0.04 μM) [1, 10]: 0.987 | Complete Media [1, 11]: 1.164 | Difference [1, 18]: 0.18 | Cholesterol-free [2, 25]: 1.414 | Complete ([2]; NCI-H292 cells, complete media): 1.043 | Difference [2, 26]: −0.37

O=C([O-])c1ccccc1O.[Na+] [Sodium Salicylate]
Cholesterol-free media + simvastatin (0.04 μM) [1]: 1.29 | Complete Media [1]: 1.045 | Difference [1]: −0.24 | Cholesterol-free [2]: 1.153 | Complete [2]: 0.943 | Difference [2]: −0.21

O.O.O=C([O-])CC(O)(CC(=O)[O-])C(=O)[O-].[Na+].[Na+].[Na+] [Sodium citrate (dihydrate)]
Cholesterol-free media + simvastatin (0.04 μM) [1]: 1.04 | Complete Media [1]: 1.108 | Difference [1]: 0.07 | Cholesterol-free [2]: 0.7144 | Complete [2]: 0.9967 | Difference [2]: 0.28
